# In patent US12383526B2, “Optimized sigma-1 agonist method of responder selection and treatment” (ANAVEX LIFE SCIENCES CORP., priority 2018, dated 2025):
# What was measured:
# [1] = Plasma concentrations of ANAVEX2-73 and its metabolite ANAVEX19-144 in the 57-week study; assay type: in vivo, human; details: for Mean Concentration ANAVEX2-73, Max / Mean Concentration ANAVEX2-73, Mean / Mean Concentration ANAVEX2-73, Min: plasma
# Protocol: A pharmacokinetics analysis was performed during Part A only. Blood samples were drawn at 12 and 11 time points after the first oral or IV administration during the first and second periods of Part A, respectively. Pharmacokinetic parameters included in the analysis consisted of maximum plasma drug concentration (C max), time to maximum plasma concentration during a dosing interval (t max), area under the curve from the time of dosing to the last measurable concentration (AUC0-t), mean elimination half-life (t ½), and the total body clearance for extravascular administration divided by the fraction of dose absorbed (CL/F).
# Steady-state plasma levels of ANAVEX2-73 and its metabolite ANAVEX19-144 were assessed in Part B through blood samples collection at pre-specified time points (Weeks 12, 26, 36 and 48). Mean concentration values in ng/mL of each patient were then averaged. Table 14 illustrates mean plasma concentrations of ANAVEX2-73 and its metabolite ANAVEX19-144 during the 57-week study study.
# [2] = Safety and tolerability, 57-week study; assay type: in vivo, human
# Protocol: Part B, following immediately after Part A, was an open-label extension of the oral daily dose for an additional 52 weeks. The primary endpoint of 57-week study was to establish the safety and tolerability of the drug. Secondary endpoints aimed at establishing the relationship between dosing regimen and pharmacodynamics-exploratory efficacy outcomes of cognition and function. Cognition was assessed by the Mini Mental State Examination (MMSE), while functional abilities by the Alzheimer's Disease Co-operative Study—Activities of Daily Living Inventory (ADCS-ADL). Additional cognitive measures included the Cogstate Brief Battery (CBB), and functional measures of Electroencephalography and Event-Related Potential (EEG and ERP). Part B continued an adaptive oral administration scheme. Table 12 summarizes mean oral dose administration during the 57-week study study. Safety was evaluated by assessment of incidence and severity of adverse events, vital signs, physical examination, clinical laboratory parameters (hematology, serum chemistry and urinalysis), and electrocardiogram (data not shown).
# [3] = system: subjects with mild-to-moderate AD; assay: KEM Formal Concept Analysis association rules (support, confidence, lift) linking patient characteristics with MMSE / ADCS-ADL response; parameters: species or system human
# Description: A small cohort, with the number of patient observations orders of magnitude smaller than number of attributes, constitutes an analytical challenge. In this study, an unsupervised Formal Concept Analysis method (FCA), based on Galois lattices, as implemented in the KEM software (v.3.6.2), was used to identify and rank phenotypic and genotypic biomarkers. No link is assumed in this analysis between biomarkers and outcomes, enabling a hypothesis free, data-driven, generation of all relations.
# A total of 3,145,630 relations between all available features were explored. Stringent filtering excluded rules containing variables coding for the absence of DNA variants and medium RNA expression groups. Numerical filtering of rules involved the following thresholds: support (n>3), confidence (>50%), lift (≥1.2) and p-value (Fisher Exact Test or Mann-Whitney-Wilcoxon<0.05). The filtering steps led to a subset of 1,019 association rules linking clinical, genomic and transcriptomics patient characteristics with response at multiple time points. A second filtering step focused on relationships with response at week 57 only, raising […], and lift≥1.5, and excluding RNA expression, CYP variants and dose/concentration from Part A. This further reduced the number of rules to 15 associations linked to outcome as measured by Delta (with binarized discretization) or Slope of MMSE or ADCS-ADL at week 57. The 15 rules are presented in order of highest confidence and highest lift. The stringent filtering focused on relationships of response at week 57 (end of Part B), reduced the number of associations to only 15 linked to outcomes as measured by Delta or Slope MMSE or ADCS-ADL (Table 4). […] Higher concentrations improved Delta ADCS-ADL scores (p=0.03) (FIG. 2C).
# The KEM® (Knowledge Extraction and Management) v 3.6.2 software was used to systematically extract relations between all variables collected. […]
# P-values from two statistical tests were calculated for each association rule. […]
# SIGMAR1 = molecular target: T1, SIGMAR1 (Mus musculus, UniProt O55242); details: mice; cited from earlier work
# T1 construct: from tissue; host or cells: living mice (in vivo PET)
# [4] = system: cholinergic muscarinic receptors; details: mice; cited from earlier work
# [5] = Phase 1 study; 1-60 mg range; male healthy subjects; cited from earlier work
# T1 sequence (O55242 whole entry): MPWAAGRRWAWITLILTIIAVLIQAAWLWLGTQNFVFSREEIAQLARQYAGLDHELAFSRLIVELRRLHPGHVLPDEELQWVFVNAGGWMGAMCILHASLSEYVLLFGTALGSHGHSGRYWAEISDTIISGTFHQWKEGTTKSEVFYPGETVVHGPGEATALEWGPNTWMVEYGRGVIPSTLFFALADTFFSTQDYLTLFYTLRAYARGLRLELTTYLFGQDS
compound,measurement,setting,value
"CN(C)CC1CCOC1(c1ccccc1)c1ccccc1.Cl (stereo not drawn) [ANAVEX2-73, tetrahydro-N,N-dimethyl-2,2-diphenyl-3-furanmethanamine hydrochloride]",plasma concentration versus dose in the present study,"[1]; 57-week study Part A, FIG. 2B",dose-dependent increase
same,"Mean Concentration ANAVEX2-73, Max",[1]; Part A1 (Day 1-2),15.9 ng/mL
same,"Mean Concentration ANAVEX2-73, Mean",[1]; Part A1 (Day 1-2),5.25 ng/mL
same,"Mean Concentration ANAVEX2-73, Min","[1]; Part A1 (Day 1-2: within 2 days of first oral dose), N = 32 patients",0.84 ng/mL
same,"Mean Concentration ANAVEX2-73, Max",[1]; Part A2 (Day 3-12),8.44 ng/mL
same,"Mean Concentration ANAVEX2-73, Mean",[1]; Part A2 (Day 3-12),2.11 ng/mL
same,"Mean Concentration ANAVEX2-73, Min",[1]; Part A2 (Day 3-12),0.03 ng/mL
same,"Mean Concentration ANAVEX2-73, Max",[1]; Part B (Week 5 to Week 57),11.58 ng/mL
same,"Mean Concentration ANAVEX2-73, Mean",[1]; Part B (Week 5 to Week 57),3.8 ng/mL
same,"Mean Concentration ANAVEX2-73, Min",[1]; Part B (Week 5 to Week 57),0 ng/mL
same,primary endpoint of safety and tolerability,"[2]; 57-week Phase 2a AD study, 32 patients with mild to moderate AD",met its primary endpoint of safety and tolerability
same,patients discontinued due to an Adverse Event (AE),"[2]; 57-week study, seven patients discontinued in total",one
same,"Confidence, High Concentration Part B -> MMSE Slope Improve","[3]; Week 57, Support 5, nx 8, ny 7",0.63
same,"Lift, High Concentration Part B -> MMSE Slope Improve","[3]; Week 57, Support 5, nx 8, ny 7",1.88
same,increase in probability of improved MMSE outcome,"[3]; average blood concentration above 4 ng/mL in Part B, week 57",1.88 fold
same,target binding by PET scan,SIGMAR1,directly bind its target
same,modulation of cholinergic muscarinic receptors,[4],modulate cholinergic muscarinic receptors
same,relationship between dose and plasma concentration,[5],linear
